Key:
[1] = Delivery of cG-2-AllylP into the brain after oral administration (CSF, blood, brain exposure); assay type: in vivo, Sprague Dawley rats; conditions: rat
Description: In an in vivo study, male Sprague Dawley rats (aged 14 weeks) received a single dose of cG-2-AllylP, either 100 mg/kg or 200 mg/kg by oral gavage. Cerebrospinal fluid (CSF) and whole blood were collected at 1.5 and 4 hours postdose, and brain tissue was collected at 4 hours postdose to evaluate cG-2-AllylP exposure.

Tcf4^+/− mice [2] = test: Social interaction / sociability (time sniffing a novel mouse); assay type: in vivo; parameters: key to Sociability: Tukey’s Multiple Comparison Test Summary: **** = p < 0.00001; ns = not significant
Description: (§1) In vivo behavioral studies were conducted in Tcf4^+/− mutant and wildtype littermate control (WT) mice by Gen.DDI (Santiago, Chile). Littermate controls consist of the genotypes Tcf4^+/+. All Tcf4 mutant mice used were heterozygous for the Tcf4 mutation because homozygous mutations of Tcf4 result in embryonic to postnatal day 1 lethality. Ten mice per treatment group, 14 weeks of age, were used for behavioral experiments. Experiments were conducted in line with the requirements of the UK Animals (Scientific Procedures) Act, 1986. The mice were housed in plastic cages (35×30×12 cm), 5 in each and habituated to the animal facilities for at least a week before commencing the test. The room temperature (21° C.±2° C.), relative humidity (55%±5%), a 12-hour light-dark cycle (lights on 7 AM to 7 PM), and air exchange were automatically controlled. The animals had free access to commercial food pellets and water. Testing was performed during the light phase of the circadian cycle, with the order of testing being determined by the principle of conducting the most stressful tests last. Assays were designed to reproduce and expand on the original behavioral characterization of Tcf4^+/− mice. Tcf4^+/− and WT control mice were treated for 6 weeks prior to testing and tested 30 minutes following a dose of cG-2-AllylP, as described in Table 2 below.
Social recognition and social memory in humans are very important. People with PTHS show lower amounts of social recognition and memory compared with people without PTHS. […] Therefore, to determine if NNZ-2591 (cG-2-AllylP) could be effective in normalizing this condition, we carried out a series of studies in mice, in which we determined the amount of time that mice spent sniffing a novel mouse.
To carry out these studies, mice were evaluated by the amount of time spent sniffing a novel mouse upon repeated exposures, to induce familiarity, and reinstatement of high levels of sniffing when a novel stimulus animal is introduced. We measured the number of bouts of sniffing in each of the groups of animals. The time spent sniffing a novel mouse is shown on the vertical axis and the animals and treatments are shown on the horizontal axis.

Tcf4^+/− mice [3] = test: Fear conditioning (time freezing); assay type: in vivo, mouse; parameters: key to Fear Conditioning: Tukey’s Multiple Comparisons Test Summary: **** = p < 0.00001; ns = not significant
Description: as §1
Fear conditioning to either an event or a context represents a form of associative learning that has been well studied in many species. In mice, fear is often shown as stopping movement, also known as freezing behavior. Freezing is adaptive for prey species because predators often locate moving prey. The dependent measure used in contextual (delay) fear conditioning is a freezing response that takes place following pairing of an unconditioned stimulus (foot shock), with a conditioned stimulus (CS; e.g., an audible tone), a particular context and/or such a cue. If in a conditioning context one administers a foot shock that is paired with a tone, there will be learning not only to the tone, but also to the context.
Contextual fear conditioning is a basic conditioning procedure. It involves taking an animal and placing it in a novel environment, providing an aversive stimulus, and then removing it. […] Freezing is a response to fear, which has been defined as “absence of movement except for respiration.” This freezing behavior may last from seconds to minutes depending on the strength of the aversive stimulus, the number of presentations, and the degree of learning achieved by the subject.
Animals with the Tcf4^+/− mutation show less freezing behavior than wild type mice. This maladaptive behavior can have serious consequences. Therefore, to determine if NNZ-2591 (cG-2-AllylP) can restore normal fear conditioning in Tcf4^+/− mice, we carried out a series of studies.
The percent of time spent in freezing over a 5-minute test period is shown on the vertical axis of FIG. 4. Animals and their treatments are shown on the horizontal axis.

[4] = single oral dose 100 mg/kg, 1.5 h postdose
[5] = single oral dose 100 mg/kg, 4 h postdose
[6] = single oral dose 200 mg/kg, 1.5 h postdose
[7] = single oral dose 200 mg/kg, 4 h postdose
[8] = Tcf4^+/− + cG-2-AllylP (100 mg/kg) vs WT + cG-2-AllylP (200 mg/kg)
[9] = Tcf4^+/− + vehicle vs Tcf4^+/− + cG-2-AllylP (100 mg/kg)
[10] = Tcf4^+/− + vehicle vs Tcf4^+/− + cG-2-AllylP (200 mg/kg)
[11] = Tcf4^+/− + vehicle vs WT + cG-2-AllylP (100 mg/kg)
[12] = Tcf4^+/− + vehicle vs WT + cG-2-AllylP (200 mg/kg)
[13] = WT + cG-2-AllylP (100 mg/kg) vs Tcf4^+/− + cG-2-AllylP (100 mg/kg)
[14] = WT + cG-2-AllylP (100 mg/kg) vs Tcf4^+/− + cG-2-AllylP (200 mg/kg)
[15] = WT + cG-2-AllylP (100 mg/kg) vs WT + cG-2-AllylP (200 mg/kg)
[16] = WT + cG-2-AllylP (200 mg/kg) vs Tcf4^+/− + cG-2-AllylP (200 mg/kg)
[17] = WT + vehicle vs Tcf4^+/− + cG-2-AllylP (100 mg/kg)
[18] = WT + vehicle vs Tcf4^+/− + cG-2-AllylP (200 mg/kg)
[19] = WT + vehicle vs WT + cG-2-AllylP (100 mg/kg)
[20] = WT mice, 100 mg/kg oral BID 6 weeks
[21] = WT mice, 200 mg/kg oral BID 6 weeks

Dose dependence of concentration in blood, CSF and brain ([1]; 100 vs 200 mg/kg single oral dose, blood and CSF at 1.5 h, blood, CSF and brain at 4 h): approximately proportional increase | Concentration in blood compared with brain tissue ([1]; 4 hours post dose): approximately equivalent | Concentration of cG-2-AllylP in Blood [1, 4]: 58.5 µg/mL | Concentration of cG-2-AllylP in CSF [1, 4]: 40.4 µg/mL | Concentration of cG-2-AllylP in Blood [1, 5]: 15.6 µg/mL | Concentration of cG-2-AllylP in Brain [1, 5]: 22.6 µg/mL | Concentration of cG-2-AllylP in CSF [1, 5]: 11.0 µg/mL | Concentration of cG-2-AllylP in Blood [1, 6]: 116.0 µg/mL | Concentration of cG-2-AllylP in CSF [1, 6]: 82.2 µg/mL | Concentration of cG-2-AllylP in Blood [1, 7]: 34.2 µg/mL | Concentration of cG-2-AllylP in Brain [1, 7]: 37.0 µg/mL | Concentration of cG-2-AllylP in CSF [1, 7]: 24.7 µg/mL
Compound: C=CC[C@]12CCCN1C(=O)CNC2=O [cG-2-AllylP, (8aS)-Allyl-hexahydropyrrolo[1,2-a]pyrazine-1,4-dione]
Sociability: Tukey’s Multiple Comparison Test Summary (Tcf4^+/− mice [2]; Tcf4^+/− + cG-02-AllylP (100 mg/kg) vs Tcf4^+/− + cG-2-AllylP (200 mg/kg)): ns | Sociability: Tukey’s Multiple Comparison Test Summary (Tcf4^+/− mice [2]; [8]): ns | Sociability: Tukey’s Multiple Comparison Test Summary (Tcf4^+/− mice [2]; [9]): **** (**** = p < 0.0001) | Sociability: Tukey’s Multiple Comparison Test Summary (Tcf4^+/− mice [2]; [10]): **** (**** = p < 0.0001) | Sociability: Tukey’s Multiple Comparison Test Summary (Tcf4^+/− mice [2]; [11]): **** (**** = p < 0.0001) | Sociability: Tukey’s Multiple Comparison Test Summary (Tcf4^+/− mice [2]; [12]): **** (**** = p < 0.0001) | Behavior Normalized to WildType Levels: Sociability (Tcf4^+/− mice [2]; Tcf4^+/− mice, 100 mg/kg): ✓ | Time spent sniffing a novel mouse (Tcf4^+/− mice [2]; Tcf4^+/− mice, 100 mg/kg oral BID 6 weeks, compared to Tcf4^+/− mice treated with vehicle only): substantial and statistically significant increases | Behavior Normalized to WildType Levels: Sociability (Tcf4^+/− mice [2]; Tcf4^+/− mice, 200 mg/kg): ✓ | Time spent sniffing a novel mouse (Tcf4^+/− mice [2]; Tcf4^+/− mice, 200 mg/kg oral BID 6 weeks, compared to Tcf4^+/− mice treated with vehicle only): substantial and statistically significant increases | Sociability: Tukey’s Multiple Comparison Test Summary (Tcf4^+/− mice [2]; [13]): ns | Sociability: Tukey’s Multiple Comparison Test Summary (Tcf4^+/− mice [2]; [14]): ns | Sociability: Tukey’s Multiple Comparison Test Summary (Tcf4^+/− mice [2]; [15]): ns | Sociability: Tukey’s Multiple Comparison Test Summary (Tcf4^+/− mice [2]; [16]): ns | Sociability: Tukey’s Multiple Comparison Test Summary (Tcf4^+/− mice [2]; [17]): ns | Sociability: Tukey’s Multiple Comparison Test Summary (Tcf4^+/− mice [2]; [18]): ns | Sociability: Tukey’s Multiple Comparison Test Summary (Tcf4^+/− mice [2]; [19]): ns | Time spent sniffing a novel mouse (Tcf4^+/− mice [2]; [20]): nearly identical times | Time spent sniffing a novel mouse (Tcf4^+/− mice [2]; [21]): nearly identical times | Fear Conditioning: Tukey’s Multiple Comparisons Test Summary (Tcf4^+/− mice [3]; Tcf4^+/− + cG-2-AllylP (100 mg/kg) vs Tcf4^+/− + cG-2-AllylP (200 mg/kg)): *** (*** = p < 0.001) | Fear Conditioning: Tukey’s Multiple Comparisons Test Summary (Tcf4^+/− mice [3]; [8]): **** (**** = p < 0.0001) | Fear Conditioning: Tukey’s Multiple Comparisons Test Summary (Tcf4^+/− mice [3]; [9]): **** (**** = p < 0.0001) | Fear Conditioning: Tukey’s Multiple Comparisons Test Summary (Tcf4^+/− mice [3]; [10]): **** (**** = p < 0.0001) | Fear Conditioning: Tukey’s Multiple Comparisons Test Summary (Tcf4^+/− mice [3]; [11]): **** (**** = p < 0.0001) | Fear Conditioning: Tukey’s Multiple Comparisons Test Summary (Tcf4^+/− mice [3]; [12]): **** (**** = p < 0.0001) | Time spent in freezing behavior over a 5-minute test period (Tcf4^+/− mice [3]; Tcf4^+/− mice, 100 mg/kg oral BID 6 weeks, 100 mg/kg): improved but remained significantly different to Wild Type | Behavior Normalized to WildType Levels: Fear Con (Tcf4^+/− mice [3]; Tcf4^+/− mice, 200 mg/kg): ✓ | Fear Conditioning: Tukey’s Multiple Comparisons Test Summary (Tcf4^+/− mice [3]; [13]): ns | Fear Conditioning: Tukey’s Multiple Comparisons Test Summary (Tcf4^+/− mice [3]; [14]): nx | Fear Conditioning: Tukey’s Multiple Comparisons Test Summary (Tcf4^+/− mice [3]; [15]): ns | Fear Conditioning: Tukey’s Multiple Comparisons Test Summary (Tcf4^+/− mice [3]; [16]): ns | Fear Conditioning: Tukey’s Multiple Comparisons Test Summary (Tcf4^+/− mice [3]; [17]): * (* = p < 0.05) | Fear Conditioning: Tukey’s Multiple Comparisons Test Summary (Tcf4^+/− mice [3]; [18]): ns | Fear Conditioning: Tukey’s Multiple Comparisons Test Summary (Tcf4^+/− mice [3]; [19]): ns | Fear Conditioning: Tukey’s Multiple Comparisons Test Summary (Tcf4^+/− mice [3]; WT + vehicle vs WT + cG-2-AllylP (200 mg/kg)): ns | Time spent in freezing behavior over a 5-minute test period (Tcf4^+/− mice [3]; [20]): about the same amount of time in freezing behavior as did vehicle-treated WT mice | Time spent in freezing behavior over a 5-minute test period (Tcf4^+/− mice [3]; [21]): about the same amount of time in freezing behavior as did vehicle-treated WT mice

Source: patent US12472177B2, “Bicyclic compounds and methods for their use in treating Pitt Hopkins syndrome” (NEUREN PHARMACEUTICALS LIMITED, priority 2019, dated 2025)
